The conditions of this data set: pig, in vivo, po.

Take `C/C=C/C=C/C(=O)O` [sorbic acid]: the “presence of the marker in the various intestinal tracts” value is “present in the various intestinal tracts only when administered in encapsulated form in the lipid matrix”.
For the compound `COc1cc(C=O)ccc1O` [vanillin], the “presence of the marker in the various intestinal tracts” value is on record as “present in the various intestinal tracts only when administered in encapsulated form in the lipid matrix”.

The record behind these values is US20220264910A1, “COMPOSITIONS COMPRISING AMINO ACIDS AND A FURTHER COMPONENT FOR THE SUPPLY OF AMINO ACIDS TO A MONOGASTRIC ANIMAL SUCH AS A HUMAN OR A PIG” (VETAGRO INTERNATIONAL S.R.L., priority 2019, published 2022).
